Patent US7022700B2, “Method of increasing neutrophil production using optically-pure (R)-2,3-benzodiazepines” (Vela Pharmaceuticals, Inc., priority 2002, dated 2006)
Marks after values point to notes of the source that are not given here.

What was measured:
IL-2 production = conditions: in vitro; cited from earlier work
lymphocyte = conditions: in vitro; cited from earlier work
peripheral BZ receptors = peripheral BZ receptors (Homo sapiens, UniProt P30536); conditions: cited from earlier work
[1] = system: central benzodiazepine (BZ) receptors; conditions: cited from earlier work
[2] = system: neutrophil production (absolute neutrophil count); assay: Increase in neutrophil production in 16-day study in rat; type: in vivo
Description: Animals were identified using an implanted microchip identification device encoded with a unique number. Each animal was dosed daily via oral gavage with either a test substance (R-tofisopam) or control, starting on Day 1 and through day 15. The control article was 0.5% low viscosity carboxymethylcellulose (CMC) (Lot No. 74231) and 0.4% Tween 80® (lot no. QJ1033) in reverse osmosis water.
The animals were sacrificed on Day 16 (with the exception of three males and one female which died on test or was sacrificed before the scheduled termination, and which are not included in the mean neutrophil count data). Neutrophil counts in Table 2, below, are reported as a mean value of the count for the animals of each group surviving and sacrificed on Day 16.
The normal range of absolute neutrophil counts is […] for male and 0.2–2.4×10^3 cells/μL for female rats. For each sex, groups 2–4 were compared with the control group (Group 1M or 1F). Group comparisons were evaluated at the 5.0%, two-tailed probability level. Data marked with * represents a statistically significant difference from the corresponding control group.

[3] = in vivo; cited from earlier work
[4] = female rats, group 2F, 100 mg/kg/day oral gavage days 1-15
[5] = female rats, group 3F, 200 mg/kg/day oral gavage days 1-15
[6] = female rats, group 4F, 400 mg/kg/day oral gavage days 1-15
[7] = male rats, group 2M, 100 mg/kg/day oral gavage days 1-15
[8] = male rats, group 3M, 200 mg/kg/day oral gavage days 1-15
[9] = male rats, group 4M, 400 mg/kg/day oral gavage days 1-15

peripheral BZ receptors, sequence (P30536 whole entry): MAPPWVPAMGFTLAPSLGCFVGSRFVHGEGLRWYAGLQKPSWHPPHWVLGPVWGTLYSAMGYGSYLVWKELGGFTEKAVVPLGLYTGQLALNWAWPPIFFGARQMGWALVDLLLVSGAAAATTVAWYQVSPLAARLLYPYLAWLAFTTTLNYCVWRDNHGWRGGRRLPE

CCC1C(C)=NN=C(c2ccc(OC)c(OC)c2)c2cc(OC)c(OC)cc21 (racemic) [tofisopam]
IL-2 production (IL-2 production): enhances
mitogen-induced lymphocyte proliferation (lymphocyte): enhances
binding to peripheral BZ receptors (peripheral BZ receptors): binds only weakly
interaction with central benzodiazepine (BZ) receptors [1]: does not interact

CC[C@H]1C(C)=NN=C(c2ccc(OC)c(OC)c2)c2cc(OC)c(OC)cc21 [R-tofisopam, (R)-1-(3,4-dimethoxyphenyl)-4-methyl-5-ethyl-7,8-dimethoxy-5H-2,3-benzodiazepine]
Mean % change (day 16) [2, 4]: 29* %
Mean Neutrophil count (day 16) [2, 4]: 2.4* × 10^3/μL
Mean % change (day 16) [2, 5]: 47* %
Mean Neutrophil count (day 16) [2, 5]: 6.0* × 10^3/μL
Mean % change (day 16) [2, 6]: 63* %
Mean Neutrophil count (day 16) [2, 6]: 11.6* × 10^3/μL
neutrophil levels versus control group ([2]; male and female rats, 100-400 mg/kg/day oral gavage, 5.0% two-tailed probability level): significantly increased in a dose-dependant manner
Mean % change (day 16) [2, 7]: 43* %
Mean Neutrophil count (day 16) [2, 7]: 5.7* × 10^3/μL
Mean % change (day 16) [2, 8]: 45* %
Mean Neutrophil count (day 16) [2, 8]: 7.4* × 10^3/μL
Mean % change (day 16) [2, 9]: 57* %
Mean Neutrophil count (day 16) [2, 9]: 12.9* × 10^3/μL

B1: Neulasta: a longer acting derivative of filgrastim (protein, chains of the INN, looked up)
chain: TPLGPASSLPQSFLLKCLEQVRKIQGDGAALQEKLCATYKLCHPEELVLLGHSLGIPWAPLSSCPSQALQLAGCLSQLHSGLFLYQGLLQALEGISPELGPTLDTLQLDVADFATTIWQQMEELGMAPALQPTQGAMPAFASAFQRRAGGVLVASHLQSFLEVSYRVLRHLAQP
modifications: PEG 20 kDa
notes: a longer acting derivative of filgrastim
elimination half-life [3]: 15 to 80 h

B2: Nupogen: recombinant version of a human protein, G-CSF (granulocyte-colony stimulating factor) (protein, chains of the INN, looked up)
chain: MTPLGPASSLPQSFLLKCLEQVRKIQGDGAALQEKLCATYKLCHPEELVLLGHSLGIPWAPLSSCPSQALQLAGCLSQLHSGLFLYQGLLQALEGISPELGPTLDTLQLDVADFATTIWQQMEELGMAPALQPTQGAMPAFASAFQRRAGGVLVASHLQSFLEVSYRVLRHLAQP
elimination half-life [3]: 3.5 h
